Test results taken from patent US10287265B2, “Enantiomers of 8-hydroxyquinoline derivatives and the synthesis thereof” (AVIDIN Co. Ltd., priority 2015, dated 2019).
Entries after “also recorded” stand apart in the source; their conditions may differ.

Tests used:
[1] = tested on: C57BL6/J mice; test: Scopolamine-induced short-term memory impairment, Y maze test; format: in vivo, mouse; details: per os gavage; scopolamine 0.6 mg/kg i.p. 30 min prior to Y maze test
Method: (§1) In vivo experiments were carried out according to the National Institute of Health guidelines for the care and use of laboratory animals, approved by the French Ministry for Research and Technology. In the course of experiments, animals were housed at a standard temperature (22±1° C.) and in a light-controlled environment (lights on from 7 a.m. to 8 p.m.) with ad libitum access to food and water. Male C57BL/6 mice (C57BL/6J Rj, ref. SC-CJ-12w-M, Janvier, France) were housed 5 animals per cage. From one week before the start of the experiment until the end of the experiment, mice were housed individually. Animals were monitored twice-a-day by laboratory personnel (8 a.m. and 4 p.m.). In this project, young (14 weeks old) as well as aged (15-16 months old) mice were used. Experiments were carried out using 12 mice per experimental group.
Investigation of short-term working memory—Y maze test Y maze tests were carried out as previously described. Prior to testing, mice were brought to the experimental room for at least 30 min to acclimatize to experimental room conditions. […] Each arm entry was recorded with those entries being counted where the mouse completely placed its hind paws in the chosen arm. […] Results were calculated as the percentage of the ratio of actual detected alternations to possible alternations (defined as the number of total arm entries minus 2). […]

[2] = tested on: VEGF gene; test: Gene expression in primary astrocytes by qRT-PCR; format: cell-based, rat; details: in the cells
Method: (§2) Pure astrocyte culture was obtained from neonatal rats according to the protocol found in literature (Protocols for Neural Cell Culture 2001, pp 117-127. ch 9. Ruth Cole, Jean de Vellis. Preparation of Astrocyte, Oligodendrocyte, and Microglia Cultures from Primary Rat Cerebral Cultures). Astrocytes (1 million) were cultured in 100 mm TC-treated culture dishes (Orange Scientific, Belgium) in an incubator set at 37° C. and 5% CO2 with humid air. The R-enantiomeric derivative according to Example 2 was added to cells in two final concentrations: 330 nM and 1000 nM. Cells were also treated with 1000 nM PBT2 which bears the basic structure of the R-enantiomer according to Example 2 (8-hydroxy-quinoline ring) but contains conformational differences and was developed for the treatment of neurodegenerative disorders (Pub. No.: WO/2004/007461). Treatments were carried out with a 100 μM DMSO-based stock solution. Control cells were treated with the same amount of DMSO without the agent. Each treatment was conducted in three separate culture dishes. After treatment, cells were incubated at 37° C. for 3 h, then the medium was removed, cells were washed with PBS and total RNA was extracted from cells with the Accuzol™ Total RNA Extraction Solution (Bioneer, Daejeon, South Korea), according to the manufacturer's protocol. cDNA transcription was carried out with the High Capacity cDNA Reverse Transcription Kit (Life Technologies, Foster City, Calif., USA). During the test, the expression of four genes (PGK1, EPO, HMOX-1, VEGF) controlled by HIF1a was determined by qRT-PCR, with HPRT gene serving as a control. Relative expression of genes in treated samples was compared to untreated controls. The PCR was conducted with a LightCycler® Nano Instrument (Roche, Budapest, Hungary) in the presence of UPL (Universal Probe Library) probes (HPRT: 95, HMOX1: 4, EPO: 16, VEGF: 1, PGK1: 66), specific primers (HPRT1: 5′-gaccggttctgtcatgtcg-3′, HPRT2: 5′-[…]-3′; HMOX1-1: 5′-[…]-3′, HMOX1-2: 5′-ctgcagctcctcaaacagc-3′; EPO1: 5′-[…]-3′, EPO2: 5′-ccttctgcacagcccatt-3′; VEGF1: 5′-[…]-3′, VEGF2: 5′-[…]-3′; PGK1-1: 5′-[…]-3′, PGK1-2: 5′-gacttggctccattgtcca-3′) in 20 μl PCR reaction volume with 20 ng cDNA template and 10 μl Lightcycler DNA Probes Master (5×) Reagent Kit (Roche) according to the following protocol: activation of enzyme at 95° C. for 10 min, 50 cycles: denaturation at 95° C. for 15 sec, hybridization and polymerization, then detection at 60° C. for 30 sec.

[3] = tested on: EPO gene; test: Gene expression in primary astrocytes by qRT-PCR; format: cell-based, rat; details: 3 h, Example 2 at 330 nM and 1000 nM, PBT2 at 1000 nM
Method: as §2

[4] = tested on: PGK1 gene; test: Gene expression in primary astrocytes by qRT-PCR; format: cell-based, rat; details: in the cells
Method: as §2

[5] = tested on: HMOX-1 gene; test: Gene expression in primary astrocytes by qRT-PCR; format: cell-based, rat; details: 3 h, Example 2 at 330 nM and 1000 nM, PBT2 at 1000 nM
Method: as §2

[6] = tested on: C57BL6/J mice; test: Short-term memory impairment caused by amyloid peptide aggregates (icv Aβ oligomers), Y maze test; format: in vivo, mouse; details: 4 mg/kg body weight per os once daily for four days; Y maze at day 4 post Aβ
Method: as §1
Investigation of short-term working memory—Y maze test Y maze tests were carried out as previously described. Prior to testing, mice were brought to the experimental room for at least 30 min to acclimatize to experimental room conditions. The Y maze is made of opaque Plexiglas and each arm is 40 cm long, 16 cm high, 9 cm wide and positioned at equal angles. The apparatus was placed in the test room in such a way that it was brightened homogeneously with 12-15 lux in the arms as well as in the central zone. One mouse at a time was placed at the end of one arm and was allowed to move in the maze freely during a 5 min examination. Each arm entry was recorded with those entries being counted where the mouse completely placed its hind paws in the chosen arm. […] Results were calculated as the percentage of the ratio of actual detected alternations to possible alternations (defined as the number of total arm entries minus 2).
For the examination of memory impairment caused by Aβ oligomers, a mouse model developed and validated by SynAging was used. […] At day 4 post Aβ treatment, short-term memory was assessed with the Y maze test. […]
At day 4 post Aβ treatment, short-term memory was assessed with the Y maze test.

[7] = tested on: BALB/c ear skin graft on C57BL/6 recipient mice; test: Mouse skin transplantation, graft rejection scoring; format: in vivo; details: 5 mg/kg once every day from transplantation; Example 2 orally, tacrolimus intraperitoneal; scoring at day 9 and day 10
Method: Mouse skin transplantation is a standard method to assay host T cell responses to MHC-disparate donor antigens, which protocol was followed in the present example (Garrod and Cahalan; 2008). Briefly, WT C57BL/6 recipient mice (8-12 weeks old) and WT BALB/c donor mice (8-12 weeks old) were anesthetized with a combination of 10 mg/kg Xylazine and 100 mg/kg Ketamine administered by i.p. injection and 0.05 mg/kg Buprenorphine was administered by subcutaneous injection for analgesia. Ear skin (1.0 cm2) from the WT BALB/c donor mouse was grafted onto the flank of the WT C57BL/6 recipient. The implanted skin (graft) was covered with a sterile bandage, which was removed on day 7 post-transplant.
Recipients received either no treatment (controls), or treated with compound according to Example 2 orally at 5 mg/kg dose, once every day until the end of the experiment from the day of transplantation. […]
Different scores were used to define the quality of the grafts: intact grafts (Score 0), early stages of rejection (Score 1-4, corresponding to first clear signals of graft rejection: 1; >25% rejection rate: 2; >50% rejection rate: 3; >75% rejection rate: 4) up to complete graft rejection (Score 5). […] Average scores with SEM were calculated for each group.

Compound | inhibition of scopolamine-induced short-term memory impairment [1] | increase of VEGF gene activity [2] | activation of EPO gene expression [3] | increase of PGK-1 gene activity [4] | activation of HMOX-1 gene expression [5] | inhibition of short-term memory impairment caused by fibrillar aggregates of amyloid peptides [6] | skin graft rejection score (0-5) [7]
Cc1ccnc(N[C@@H](c2ccc(C(F)(F)F)cc2)c2ccc3cccnc3c2O)n1 [Example 3, 7-[(S)-[(4-Methylpyrimidin-2-yl)amino][4-(trifluoromethyl)phenyl]methyl]quinolin-8-ol] | did not inhibit | capable to increase the gene activity | capable to increase the gene activity; also recorded: highest inductive effect | capable to increase the gene activity | capable to increase the gene activity; also recorded: caused the induction of HMOX-1 in astrocytes | did not inhibit | –
CN(C)Cc1ccc2c(Cl)cc(Cl)c(O)c2n1 [PBT2, reference compound] | – | – | did not induced differences in gene activity | – | did not induced differences in gene activity | – | –
C=CC[C@@H]1/C=C(\C)C[C@H](C)C[C@H](OC)[C@H]2O[C@@](O)(C(=O)C(=O)N3CCCC[C@H]3C(=O)O[C@H](/C(C)=C/[C@@H]3CC[C@@H](O)[C@H](OC)C3)[C@H](C)[C@@H](O)CC1=O)[C@H](C)C[C@@H]2OC [tacrolimus, reference compound] | – | – | – | – | – | – | smaller score values both on day 9 and on day 10
